ChEMBL document CHEMBL1148188, “Cytotoxic and antimalarial alkaloids from the bulbs of Crinum amabile” (J Nat Prod, 1993)
≈ marks a conversion by molar mass, not a printed value.

Key:
[1] = Cytotoxicity against human BCA1 cells after 3 days by sulforhodamine B assay; format: functional; details: BCA1, 72 h, read-out: ED50 (the source's name)
[2] = system: HT-1080; assay: Cytotoxicity against human HT1080 cells after 3 days by sulforhodamine B assay; format: functional; details: HT-1080, 72 h, read-out: ED50 (the source's name)
[3] = Cytotoxicity against human LUC1 cells after 3 days by sulforhodamine B assay; format: functional; details: LUC1, 72 h, read-out: ED50 (the source's name)
[4] = system: SK-MEL-2; assay: Cytotoxicity against human SK-MEL-2 cells after 3 days by sulforhodamine B assay; format: functional; details: SK-MEL-2, 72 h, read-out: ED50 (the source's name)
[5] = Cytotoxicity against human Col1 cells after 3 days by sulforhodamine B assay; format: functional; details: Col1, 72 h, read-out: ED50 (the source's name)
[6] = system: KB; assay: Cytotoxicity against human KB cells after 3 days by sulforhodamine B assay; format: functional; details: 72 h, read-out: ED50 (the source's name)
[7] = Cytotoxicity against human KBV1 cells after 3 days by sulforhodamine B assay; format: functional; details: KB-V1, 72 h, read-out: ED50 (the source's name)
[8] = system: P388; assay: Cytotoxicity against mouse P388 cells after 3 days by sulforhodamine B assay; format: functional; details: P388, 72 h, read-out: ED50 (the source's name)
[9] = system: A-431; assay: Cytotoxicity against human A431 cells after 3 days by sulforhodamine B assay; format: functional; details: A-431, 72 h, read-out: ED50 (the source's name)
[10] = system: LNCaP; assay: Cytotoxicity against human LNCAP cells after 3 days by sulforhodamine B assay; format: functional; details: 72 h, read-out: ED50 (the source's name)
[11] = system: ZR-75-1; assay: Cytotoxicity against human ZR-75-1 cells after 3 days by sulforhodamine B assay; format: functional; details: ZR-75-1, 72 h, read-out: ED50 (the source's name)
[12] = Cytotoxicity against human U373 cells after 3 days by sulforhodamine B assay; format: functional, U-373MG ATCC; details: U373 MG, 72 h, read-out: ED50 (the source's name)
[13] = system: Plasmodium falciparum; assay: Antimalarial activity after 24 hrs against Plasmodium falciparum D6 infected type A+ human erythrocytes by [3H]hypoxanthine uptake; format: functional; details: D6, read-out: ED50
[14] = system: Plasmodium falciparum; assay: Antimalarial activity after 24 hrs against Plasmodium falciparum W2 infected in type A+ human erythrocytes by [3H]hypoxanthine uptake; format: functional; details: W2, read-out: ED50
[15] = Selectivity index, ratio of ED50 for human KB cells to ED50 for Plasmodium falciparum D6; format: toxicity, cell-based; details: read-out: Ratio ED50
[16] = Selectivity index, ratio of ED50 for human KB cells to ED50 for Plasmodium falciparum W2; format: toxicity, cell-based; details: read-out: Ratio ED50

Compound | EC50 [1] [µg/mL] | EC50 [2] [µg/mL] | EC50 [3] [µg/mL] | EC50 [4] [µg/mL] | EC50 [5] [µg/mL] | EC50 [6] [µg/mL] | EC50 [7] [µg/mL] | EC50 [8] [µg/mL] | EC50 [9] [µg/mL] | EC50 [10] [µg/mL] | EC50 [11] [µg/mL] | EC50 [12] [µg/mL] | EC50 [13] [µg/mL] | EC50 [14] [µg/mL] | selectivity ratio [15] | selectivity ratio [16]
O[C@H]1[C@H]2c3cc4c(cc3CN3CCC(=C[C@@H]1O)[C@H]23)OCO4 [LYCORINE] | 1.6 (≈ 5.57 µM) | 0.5 (≈ 1.74 µM) | 0.9 (≈ 3.13 µM) | 1.6 (≈ 5.57 µM) | 0.8 (≈ 2.78 µM) | 0.3 (≈ 1.04 µM) | 0.4 (≈ 1.39 µM) | 0.9 (≈ 3.13 µM) | 1.3 (≈ 4.52 µM) | 0.5 (≈ 1.74 µM) | 0.9 (≈ 3.13 µM) | 0.3 (≈ 1.04 µM) | 0.32 (≈ 1.11 µM) | 0.3 (≈ 1.04 µM) | 1 | 1
C[C@@H]1CC[C@H]2[C@@H](C)C(=O)O[C@@H]3O[C@@]4(C)CC[C@@H]1[C@]32OO4 [ARTEMISININ] | – | – | – | – | – | – | – | – | – | – | – | – | 0.0006 (≈ 0.00213 µM) | – | > 33300 | > 40000
CO[C@H]1C=C[C@@]23c4cc5c(cc4CN(C[C@@H]2O)[C@H]3C1)OCO5 | 1.4 (≈ 4.65 µM) | 1.3 (≈ 4.31 µM) | 1.4 (≈ 4.65 µM) | 5 (≈ 16.6 µM) | 1 (≈ 3.32 µM) | 1 (≈ 3.32 µM) | 0.6 (≈ 1.99 µM) | 0.7 (≈ 2.32 µM) | 6.9 (≈ 22.9 µM) | 1.5 (≈ 4.98 µM) | 0.8 (≈ 2.65 µM) | 0.9 (≈ 2.99 µM) | – | – | 0.4 | 0.4
COC1C=C[C@@]23CCN(Cc4cc5c(cc42)OCO5)[C@@H]3C1 (stereo partly drawn) | > 20 | > 20 | > 20 | > 20 | > 20 | > 20 | 19.8 (≈ 69.4 µM) | > 5 | > 20 | > 20 | > 20 | > 20 | – | – | – | –
OC(c1cc(C(F)(F)F)nc2c(C(F)(F)F)cccc12)C1CCCCN1 (stereo not drawn) [MEFLOQUINE] | – | – | – | – | – | – | – | – | – | – | – | – | 0.0073 (≈ 0.0193 µM) | 0.0016 (≈ 0.00423 µM) | 480 | 2190
CCN(CC)CCCC(C)Nc1ccnc2cc(Cl)ccc12 (stereo not drawn) [CHLOROQUINE] | – | – | – | – | – | – | – | – | – | – | – | – | 0.0013 (≈ 0.00406 µM) | 0.0112 (≈ 0.035 µM) | – | –
C=C[C@H]1CN2CC[C@H]1C[C@H]2[C@H](O)c1ccnc2ccc(OC)cc12 [QUININE] | – | – | – | – | – | – | – | – | – | – | – | – | 0.0094 (≈ 0.029 µM) | 0.0245 (≈ 0.0755 µM) | > 2130 | > 820
CO[C@@H]1C[C@H]2N3CC[C@@]2(c2cc4c(cc2C3)OCO4)[C@H]2O[C@@H]12 | 2.8 (≈ 9.29 µM) | 1.2 (≈ 3.98 µM) | 3.7 (≈ 12.3 µM) | 3.2 (≈ 10.6 µM) | 2.4 (≈ 7.96 µM) | 0.6 (≈ 1.99 µM) | > 20 | 0.6 (≈ 1.99 µM) | 4.9 (≈ 16.3 µM) | 1.7 (≈ 5.64 µM) | 1.8 (≈ 5.97 µM) | 0.6 (≈ 1.99 µM) | 0.14 (≈ 0.465 µM) | 0.18 (≈ 0.597 µM) | 4 | 3
O[C@@H]1CC[C@H]2N3CC[C@@]2(c2cc4c(cc2C3)OCO4)[C@@H]1O | > 20 | > 20 | > 20 | > 20 | > 20 | > 20 | > 20 | > 5 | > 20 | > 20 | > 20 | > 20 | – | – | – | –
